Common to all, as to assay type: in vivo
Experiment [1] can be described thus: Flavor evaluation, tasted in water. Particulars: 40 ppm in water. The text has this: Flavor Evaluation of Structure I
Flavor evaluation of the (2S,5R)—N-[4-(4-Amino-4-oxobutyl)phenyl]-5-methyl-2-(propan-2-yl)cyclohexanecarboxamide in water at concentration 40 ppm: […]

The nature of experiment [2]: Flavor evaluation, tasted in water. Conditions: for flavor evaluation: cooling: 40 ppm in water.
The test system of experiment [3] is descriptive analysis panel. Description: Chewing gum cooling evaluation by descriptive analysis panel. Particulars: gum blended with Structure I. On the procedure:
The following gum base formulation was prepared: [table] Structure I by itself and in separate mixtures with monomenthyl glutarate, 2-isopropyl-N,2,3-trimethylbutyramid, N-ethyl-p-menthanecarboxamide and menthyl acetoacetate at levels detailed in the Tables below was blended with the gum base in a Sigma mixer. The resultant chewing gum blend was then manufactured into strips 1 inch in width and 0.1 inches in thickness. These strips were cut into lengths of 3 inches each. […] Samples were profiled by a highly trained descriptive analysis panel. The ballot consisted of the following terms: Total impact, total mint, cooling-mouth closed, cooling-breath in, nasal cooling—breath in, throat irritation, bitterness, tongue irritation, numbing. Each attribute was rated at discrete time points including 5 secs, 30 secs, 90 secs, 3 mins, 5 mins, 7 mins, 10 mins, 15 mins, 20 mins, and 30 mins. The following table details the panelist's results for the combination of Structure I with monomenthyl glutarate, 2-isopropyl-N,2,3-trimethylbutyramid, N-ethyl-p-menthanecarboxamide and menthyl acetoacetate at 3 minutes, 8 minutes, 20 minutes and 30 minute, 40 minute and 50 minute intervals. The amounts are listed in weight percent.

“Also recorded” adds a separate entry of the source.

Turning to `CC(C)[C@@H]1CC[C@@H](C)CC1C(=O)Nc1ccc(CCCC(N)=O)cc1` (stereo partly drawn) [(2S,5R)—N-[4-(4-Amino-4-oxobutyl)phenyl]-5-methyl-2-(propan-2-yl)cyclohexanecarboxamide], in experiment [1], the “flavor evaluation: onset and character of cooling” value was “Late onset of cooling after expectorating, peppery on tip of tongue and back of throat, cooling on tip, irritating on back of throat—sore throat, cooling building on tip of tongue, peppery in esophagus”. Besides, in experiment [1], the “flavor evaluation: taste” value was “Umami! Ribotide-like. Umami upfront”. Moreover, the “flavor evaluation: cooling” value is “Still going strong after 20 minutes and cooling on gums” in experiment [1] (after 20 minutes); “cooling just beginning, throat irritation, slight numbing on tip of tongue, mouth-watering, mouth coating—all over” in experiment [1] (~40 sec); “continuing to build” in experiment [1] (~7 minutes); “localized on tip” in experiment [2] (30 minutes); “beginning to build” in experiment [2] (~3.5 minutes).
As for `CC(C)[C@@H]1CC[C@@H](C)CC1C(=O)Nc1ccc(CC(N)=O)cc1` (stereo partly drawn) [Structure I, (2S,5R)—N-[4-(2-Amino-2-oxoethyl)phenyl]-5-methyl-2-(propan-2-yl)cyclohexanecarboxamide], the duration of cooling in experiment [2] (1 ppm in water) worked out at 30 min; in experiment [2] (10 ppm in water, with breath in), 30 min. In addition, the “flavor properties (cooling) when tasted in water” value in experiment [2] (1 ppm in water) is “clean with slight cooling up front that builds with time to moderate level”; in experiment [2] (10 ppm in water) it was “moderate throat and mouth cooling that lingers with some bitter notes in background”. Further, the panelist comment result was “Bitter, Brown, Sweet, slightly Vanilla” in experiment [3] (Panelist 1, 11:05 (start 11:04)); “Start to notice cooling” in experiment [3] (Panelist 1, 11:06 (start 11:04)); “Moderate cooling” in experiment [3] (Panelist 1, 11:08 (start 11:04)); “Moderate cooling in mouth and now back of the throat; nice on breath in; also recorded: Continued long lasting cooling” in experiment [3] (Panelist 1, 11:11 (start 11:04)); “Slight cooling moving to the front of the mouth” in experiment [3] (Panelist 1, 11:15 (start 11:04)); “Stable cooling all over, nice level” in experiment [3] (Panelist 1, 11:18 (start 11:04)). Besides, the panelist comment entry in experiment [3] (Panelist 1, 11:22 (start 11:04)) is “Long lasting”; in experiment [3] (Panelist 2, 11:04 (start)), “Very sweet, brown”; in experiment [3] (Panelist 2, 11:07 (start 11:04)), “Started to notice cooling on breath and tip of the tongue”; in experiment [3] (Panelist 2, 11:09 (start 11:04)), “Started to notice on back of throat, continued to build in the rest of the mouth”; in experiment [3] (Panelist 2, 11:11 (start 11:04)), “Cooling consistent throughout mouth, slight irritation on the back of the throat”; in experiment [3] (Panelist 2, 11:15 (start 11:04)), “Cooling level the same”. Besides, the panelist comment entry in experiment [3] (Panelist 2, 11:24 (start 11:04)) is “Still getting a good amount of cooling”; in experiment [3] (Panelist 2, 12:07 (start 11:04)) it was “Cooling is gone”; in experiment [3] (Panelist 3, 11:07 (start 11:04)), “Cooling on the back of the throat”; in experiment [3] (Panelist 3, 11:14 (start 11:04)), “Concentrated on the back of the throat; irritating”; in experiment [3] (Panelist 3, 11:22 (start 11:04)), “Full cooling after 20 min”; in experiment [3] (Panelist 4, 11:07 (start 11:04)), “Cooling perception begins (mild)”. Also, the panelist comment result was “Cooling pleasant, builds to moderate cooling on the front/tip of tongue” in experiment [3] (Panelist 4, 11:09 (start 11:04)); “Intensity max reached” in experiment [3] (Panelist 4, 11:11 (start 11:04)); “Cooling plateau, maintained. Delocalized all over mouth” in experiment [3] (Panelist 4, 11:14 (start 11:04)); “Remains intense” in experiment [3] (Panelist 4, 11:19 (start 11:04)); “Moves to throat (mild) very intense on tip of the tongue and center” in experiment [3] (Panelist 4, 11:20 (start 11:04)); “Still cooling” in experiment [3] (Panelist 4, 11:24 (start 11:04)). The panelist comment result in experiment [3] (Panelist 4, 12:00 (start 11:04)) is listed as “Cooling remains”; in experiment [3] (Panelist 4, 12:15 (start 11:04)), “Cooling diminished significantly”.

The values above are taken from patent publication US8487130B2, “Menthylcarboxamides and their use as cooling agents” (International Flavors & Fragrances Inc., priority 2009, dated 2013).
